# Experimental data: US6461997B1, “Triazole sulfones having herbicidal activity” (Monsanto Technology LLC, priority 1999, dated 2002)
# Tests used:
# [1] = test system: GALAP (catchweed bedstraw); experiment: Pre-emergence herbicidal activity, cool season; format: in vivo, Galium aparine; conditions: lowest tested rate with 80% or greater inhibition; rates 300, 100, 30, 10 g/ha; about 14 days
# Description: (§1) Tables 5 to 8 summarize results of tests conducted as described below to determine the pre-emergence herbicidal activity, in the form of a GR80 value, of illustrative compounds of this invention. […] Compounds of the invention were typically applied at rates of 300, 100, 30, and 10 g/ha. Where herbicidal activity was evident but 80% inhibition was not achieved at the highest rate tested, an asterisk (*) is shown in the following tables.
# (§2) The pre-emergence tests were conducted by the following procedure. Topsoil was sieved to pass through a 1.27 cm screen. Fertilizer was added to the topsoil and the mixture was then sterilized by heating. The topsoil mixture was placed in a pot and compacted to a depth of 1.0 to 1.25 cm from the top of the pot. Seeds of each of several monocotyledonous and dicotyledonous annual plant species were placed on top of the soil. Additional soil was subsequently placed over the seeds to level-fill the pot. A known amount of each test compound dissolved or suspended in an appropriate organic solvent was diluted with a 50:50 mix of acetone and water and applied to the surface of the soil. After treatment the plants were placed in a greenhouse where they received 0.64 cm of overhead irrigation. All subsequent watering consisted of a light overhead mist and/or subirrigation as needed for germination and growth. Tables 5 and 6 below relate to warm season plant species which were placed after pre-emergence treatment in a greenhouse with a 30/21° C. day/night temperature regime. Tables 7 and 8 below relates to cool season plant species placed after pre-emergence treatment in a greenhouse or growth chamber with an 18/13° C. day/night temperature regime.
# (§3) Approximately 14 days after planting and treating, the plants were observed and herbicidal efficacy recorded as percent inhibition by comparison with untreated plants.
# (§4) The plant species usually regarded as weeds which were utilized in the tests are identified in the tables below according to the following legend, in which “d” indicates a dicotyledonous species and “m” a monocotyledonous species. All monocotyledonous species included in the tests herein are grasses.
# POLCO (wild buckwheat) = experiment: Pre-emergence herbicidal activity, cool season; format: in vivo, Polygonum convolvulus; conditions: lowest tested rate with 80% or greater inhibition; rates 300, 100, 30, 10 g/ha; about 14 days
# Description: as §1, §2, §3, §4
# SINAR (wild mustard) = experiment: Pre-emergence herbicidal activity, cool season; format: in vivo, Sinapis arvensis; conditions: lowest tested rate with 80% or greater inhibition; rates 300, 100, 30, 10 g/ha; about 14 days
# Description: as §1, §2, §3, §4
# [2] = test system: VERPE (creeping speedwell); experiment: Pre-emergence herbicidal activity, cool season; format: in vivo, Veronica persicaria; conditions: lowest tested rate with 80% or greater inhibition; rates 300, 100, 30, 10 g/ha; about 14 days
# Description: as §1, §2, §3, §4
# SASKR (russian thistle) = experiment: Pre-emergence herbicidal activity, cool season; format: in vivo, Salsola kali; conditions: lowest tested rate with 80% or greater inhibition; rates 300, 100, 30, 10 g/ha; about 14 days
# Description: as §1, §2, §3, §4
# STEME (common chickweed) = experiment: Pre-emergence herbicidal activity, cool season; format: in vivo, Stellaria media; conditions: lowest tested rate with 80% or greater inhibition; rates 300, 100, 30, 10 g/ha; about 14 days
# Description: as §1, §2, §3, §4
# [3] = test system: LAMPU (purple deadnettle); experiment: Pre-emergence herbicidal activity, cool season; format: in vivo, Lamium purpureum; conditions: lowest tested rate with 80% or greater inhibition; rates 300, 100, 30, 10 g/ha; about 14 days
# Description: as §1, §2, §3, §4
# [4] = test system: AGSST (creeping bentgrass); experiment: Pre-emergence herbicidal activity, cool season; format: in vivo, Agrostis stolonifera; conditions: GR80 = lowest tested rate (300, 100, 30, 10 g/ha) with 80% or greater inhibition; approx. 14 days after treating; 18/13° C.
# Description: as §1, §2, §3, §4
# [5] = test system: PANMI (wild proso millet); experiment: Pre-emergence herbicidal activity, warm season; format: in vivo, Panicum miliaceum; conditions: GR80 = lowest tested rate (300, 100, 30, 10 g/ha) with 80% or greater inhibition; approx. 14 days after treating; 30/21° C.
# Description: as §1, §2, §3, §4
smiles,measurement,setting,value
O=C(N1CCOCC1)n1cnc(S(=O)(=O)C(F)F)n1 [Example 25],"Pre-emergence activity GR80, GALAP",[1],300 g/ha
same,"Pre-emergence activity GR80, POLCO",POLCO (wild buckwheat),[empty]
same,"Pre-emergence activity GR80, SINAR",SINAR (wild mustard),[empty]
same,"Pre-emergence activity GR80, VERPE",[2],[empty]
same,"Pre-emergence activity GR80, SASKR",SASKR (russian thistle),[empty]
same,"Pre-emergence activity GR80, STEME",STEME (common chickweed),[empty]
same,"Pre-emergence activity GR80, LAMPU",[3],300 g/ha
COCCN(C)C(=O)n1cnc(S(=O)(=O)C(F)F)n1 [Example 29],"Pre-emergence activity GR80, GALAP",[1],[empty]
same,"Pre-emergence activity GR80, POLCO",POLCO (wild buckwheat),[empty]
same,"Pre-emergence activity GR80, SINAR",SINAR (wild mustard),300 g/ha
same,"Pre-emergence activity GR80, VERPE",[2],100 g/ha
same,"Pre-emergence activity GR80, SASKR",SASKR (russian thistle),300 g/ha
same,"Pre-emergence activity GR80, STEME",STEME (common chickweed),300 g/ha
same,"Pre-emergence activity GR80, LAMPU",[3],300 g/ha
same,Pre-emergence activity (GR80) AGSST,[4],300 g/ha
CCN(CC)C(=S)n1cnc(S(=O)(=O)C(F)F)n1 [Example 35],"Pre-emergence activity GR80, GALAP",[1],100 g/ha
same,"Pre-emergence activity GR80, POLCO",POLCO (wild buckwheat),100 g/ha
same,"Pre-emergence activity GR80, SINAR",SINAR (wild mustard),100 g/ha
same,"Pre-emergence activity GR80, VERPE",[2],100 g/ha
same,"Pre-emergence activity GR80, SASKR",SASKR (russian thistle),[empty]
same,"Pre-emergence activity GR80, STEME",STEME (common chickweed),[empty]
same,"Pre-emergence activity GR80, LAMPU",[3],300 g/ha
CN(C(=O)n1cnc(S(=O)(=O)C(F)(F)Br)n1)c1ccccc1 [Example 38],"Pre-emergence activity GR80, GALAP",[1],[empty]
same,"Pre-emergence activity GR80, POLCO",POLCO (wild buckwheat),[empty]
same,"Pre-emergence activity GR80, SINAR",SINAR (wild mustard),[empty]
same,"Pre-emergence activity GR80, VERPE",[2],[empty]
same,"Pre-emergence activity GR80, SASKR",SASKR (russian thistle),[empty]
same,"Pre-emergence activity GR80, STEME",STEME (common chickweed),[empty]
same,"Pre-emergence activity GR80, LAMPU",[3],[empty]
C#CCN(C)C(=O)n1cnc(S(=O)(=O)C(F)(F)Br)n1 [Example 42],Pre-emergence activity (GR80) PANMI,[5],300 g/ha
same,"Pre-emergence activity GR80, GALAP",[1],300 g/ha
same,"Pre-emergence activity GR80, POLCO",POLCO (wild buckwheat),[empty]
same,"Pre-emergence activity GR80, SINAR",SINAR (wild mustard),[empty]
same,"Pre-emergence activity GR80, VERPE",[2],[empty]
same,"Pre-emergence activity GR80, SASKR",SASKR (russian thistle),[empty]
same,"Pre-emergence activity GR80, STEME",STEME (common chickweed),[empty]
same,"Pre-emergence activity GR80, LAMPU",[3],[empty]
same,Pre-emergence activity (GR80) AGSST,[4],100 g/ha
CCSC(F)(F)S(=O)(=O)c1ncn(C(=O)N(C)c2ccccc2)n1 [Example 50],Pre-emergence activity (GR80) PANMI,[5],300 g/ha
same,"Pre-emergence activity GR80, GALAP",[1],100 g/ha
same,"Pre-emergence activity GR80, POLCO",POLCO (wild buckwheat),[empty]
same,"Pre-emergence activity GR80, SINAR",SINAR (wild mustard),[empty]
same,"Pre-emergence activity GR80, VERPE",[2],[empty]
same,"Pre-emergence activity GR80, SASKR",SASKR (russian thistle),[empty]
same,"Pre-emergence activity GR80, STEME",STEME (common chickweed),300 g/ha
same,"Pre-emergence activity GR80, LAMPU",[3],[empty]
same,Pre-emergence activity (GR80) AGSST,[4],30 g/ha
C#CCN(C)C(=O)n1cnc(S(=O)(=O)C(F)(F)SCC)n1 [Example 54],Pre-emergence activity (GR80) PANMI,[5],300 g/ha
same,"Pre-emergence activity GR80, GALAP",[1],[empty]
same,"Pre-emergence activity GR80, POLCO",POLCO (wild buckwheat),100 g/ha
same,"Pre-emergence activity GR80, SINAR",SINAR (wild mustard),[empty]
same,"Pre-emergence activity GR80, VERPE",[2],300 g/ha
same,"Pre-emergence activity GR80, SASKR",SASKR (russian thistle),[empty]
same,"Pre-emergence activity GR80, STEME",STEME (common chickweed),[empty]
same,"Pre-emergence activity GR80, LAMPU",[3],[empty]
O=C(N1CCOCC1)n1cnc(S(=O)(=O)C(F)(F)C(F)F)n1 [Example 60],"Pre-emergence activity GR80, GALAP",[1],[empty]
same,"Pre-emergence activity GR80, POLCO",POLCO (wild buckwheat),[empty]
same,"Pre-emergence activity GR80, SINAR",SINAR (wild mustard),[empty]
same,"Pre-emergence activity GR80, VERPE",[2],[empty]
same,"Pre-emergence activity GR80, SASKR",SASKR (russian thistle),[empty]
same,"Pre-emergence activity GR80, STEME",STEME (common chickweed),[empty]
same,"Pre-emergence activity GR80, LAMPU",[3],[empty]
CN(C(=O)n1cnc(S(=O)(=O)C(F)(F)C(F)F)n1)c1ccccc1 [Example 62],"Pre-emergence activity GR80, GALAP",[1],[empty]
same,"Pre-emergence activity GR80, POLCO",POLCO (wild buckwheat),[empty]
same,"Pre-emergence activity GR80, SINAR",SINAR (wild mustard),[empty]
same,"Pre-emergence activity GR80, VERPE",[2],[empty]
same,"Pre-emergence activity GR80, SASKR",SASKR (russian thistle),[empty]
same,"Pre-emergence activity GR80, STEME",STEME (common chickweed),[empty]
same,"Pre-emergence activity GR80, LAMPU",[3],300 g/ha
O=C(N1CCOCC1)n1cnc(S(=O)(=O)C(F)(F)C(F)(F)Br)n1 [Example 72],"Pre-emergence activity GR80, GALAP",[1],[empty]
same,"Pre-emergence activity GR80, POLCO",POLCO (wild buckwheat),300 g/ha
same,"Pre-emergence activity GR80, SINAR",SINAR (wild mustard),[empty]
same,"Pre-emergence activity GR80, VERPE",[2],[empty]
same,"Pre-emergence activity GR80, SASKR",SASKR (russian thistle),[empty]
same,"Pre-emergence activity GR80, STEME",STEME (common chickweed),[empty]
same,"Pre-emergence activity GR80, LAMPU",[3],[empty]
CN(C(=O)n1cnc(S(=O)(=O)C(F)(F)C(F)(F)Br)n1)c1ccccc1 [Example 74],Pre-emergence activity (GR80) PANMI,[5],300 g/ha
same,"Pre-emergence activity GR80, GALAP",[1],[empty]
same,"Pre-emergence activity GR80, POLCO",POLCO (wild buckwheat),[empty]
same,"Pre-emergence activity GR80, SINAR",SINAR (wild mustard),300 g/ha
same,"Pre-emergence activity GR80, VERPE",[2],300 g/ha
same,"Pre-emergence activity GR80, SASKR",SASKR (russian thistle),300 g/ha
same,"Pre-emergence activity GR80, STEME",STEME (common chickweed),[empty]
same,"Pre-emergence activity GR80, LAMPU",[3],300 g/ha
C=CCN(C)C(=O)n1cnc(S(=O)(=O)C(F)(F)C(F)(F)Br)n1 [Example 77],"Pre-emergence activity GR80, GALAP",[1],[empty]
same,"Pre-emergence activity GR80, POLCO",POLCO (wild buckwheat),[empty]
same,"Pre-emergence activity GR80, SINAR",SINAR (wild mustard),[empty]
same,"Pre-emergence activity GR80, VERPE",[2],[empty]
same,"Pre-emergence activity GR80, SASKR",SASKR (russian thistle),[empty]
same,"Pre-emergence activity GR80, STEME",STEME (common chickweed),[empty]
same,"Pre-emergence activity GR80, LAMPU",[3],[empty]
same,Pre-emergence activity (GR80) AGSST,[4],300 g/ha
CN(C(=O)n1cnc(S(=O)(=O)C(F)(F)Cl)n1)c1ccccc1 [Example 86],"Pre-emergence activity GR80, GALAP",[1],300 g/ha
same,"Pre-emergence activity GR80, POLCO",POLCO (wild buckwheat),[empty]
same,"Pre-emergence activity GR80, SINAR",SINAR (wild mustard),300 g/ha
same,"Pre-emergence activity GR80, VERPE",[2],100 g/ha
same,"Pre-emergence activity GR80, SASKR",SASKR (russian thistle),300 g/ha
same,"Pre-emergence activity GR80, STEME",STEME (common chickweed),[empty]
same,"Pre-emergence activity GR80, LAMPU",[3],100 g/ha
C#CCN(C)C(=O)n1cnc(S(=O)(=O)C(F)(F)Cl)n1 [Example 90],"Pre-emergence activity GR80, GALAP",[1],[empty]
same,"Pre-emergence activity GR80, POLCO",POLCO (wild buckwheat),[empty]
same,"Pre-emergence activity GR80, SINAR",SINAR (wild mustard),300 g/ha
same,"Pre-emergence activity GR80, VERPE",[2],10 g/ha
same,"Pre-emergence activity GR80, SASKR",SASKR (russian thistle),30 g/ha
same,"Pre-emergence activity GR80, STEME",STEME (common chickweed),[empty]
same,"Pre-emergence activity GR80, LAMPU",[3],[empty]
